Laboratory results: PubChem BioAssay AID1919009 (Molecular Pharmacology Branch, DTP, NCI, 2023)

Test system: K24384-001-R-PDC complex spheroid growth
Test: Anticancer human tumor K24384-001-R-PDC patient-derived pancreatic adenocarcinoma cell line growth inhibition [AhR]
Details: for IC50: curve of first compound; for viability, T/C: stronger effect = lower value
Outline: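 Complex tumor spheroids co-cultured with HUVEC and human MSC stroma; AhR antagonists tested in combination with standard-of-care and investigational agents. Top concentration at or near clinical Cmax (else 10 microM), half-log dilutions; growth expressed as percent test/control.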

[1] = second compound 0.1 µM, first compound 0.0316 µM
[2] = second compound 0.1 µM, first compound 0.1 µM
[3] = second compound 0.316 µM, first compound 0.0316 µM
[4] = second compound 0.316 µM, first compound 0.1 µM
[5] = second compound 1 µM, first compound 0.0316 µM
[6] = second compound 1 µM, first compound 0.1 µM
[7] = second compound 3.16 µM, first compound 0.0316 µM
[8] = second compound 3.16 µM, first compound 0.1 µM
[9] = second compound 10 µM, first compound 0.0316 µM
[10] = second compound 10 µM, first compound 0.1 µM
[11] = second compound 0.1 µM, first compound 0.316 µM
[12] = second compound 0.1 µM, first compound 1 µM
[13] = second compound 0.1 µM, first compound 3.16 µM
[14] = second compound 0.1 µM, first compound 10 µM
[15] = second compound 0.316 µM, first compound 0.316 µM
[16] = second compound 0.316 µM, first compound 1 µM
[17] = second compound 0.316 µM, first compound 3.16 µM
[18] = second compound 0.316 µM, first compound 10 µM
[19] = second compound 1 µM, first compound 0.316 µM
[20] = second compound 1 µM, first compound 1 µM
[21] = second compound 1 µM, first compound 3.16 µM
[22] = second compound 1 µM, first compound 10 µM
[23] = second compound 3.16 µM, first compound 0.316 µM
[24] = second compound 3.16 µM, first compound 1 µM
[25] = second compound 3.16 µM, first compound 3.16 µM
[26] = second compound 3.16 µM, first compound 10 µM
[27] = second compound 10 µM, first compound 0.316 µM
[28] = second compound 10 µM, first compound 1 µM
[29] = second compound 10 µM, first compound 3.16 µM
[30] = second compound 10 µM, first compound 10 µM
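Wherever viability, T/C is given: percent of DMSO vehicle-treated spheroid viability set as 100%.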

SMILES	IC50 (second compound 0.1 µM) [nM]	IC50 (second compound 0.316 µM) [nM]	IC50 (second compound 1 µM) [nM]	IC50 (second compound 3.16 µM) [nM]	IC50 (second compound 10 µM) [nM]	viability, T/C [1] [%]	viability, T/C [2] [%]	viability, T/C [3] [%]	viability, T/C [4] [%]	viability, T/C [5] [%]	viability, T/C [6] [%]	viability, T/C [7] [%]	viability, T/C [8] [%]	viability, T/C [9] [%]	viability, T/C [10] [%]	viability, T/C [11] [%]	viability, T/C [12] [%]	viability, T/C [13] [%]	viability, T/C [14] [%]	viability, T/C [15] [%]	other results
Cn1ncnc1C1c2n[nH]c(=O)c3cc(F)cc(c23)NC1c1ccc(F)cc1 (stereo not given) + CC(CO)NC(=O)c1cc(-c2ccc(Cl)cc2)nn(-c2cnn(C)c2)c1=O	> 100	> 100	> 100	> 100	> 100	82	69.5	74.7	74.8	76.6	72.4	61.8	62.8	63.3	54.1	–	–	–	–	–	viability, T/C (second compound 0.1 µM, first compound 0.000316 µM): 101%; viability, T/C (second compound 0.1 µM, first compound 0.001 µM): 99.9%; viability, T/C (second compound 0.1 µM, first compound 0.00316 µM): 94%; viability, T/C (second compound 0.1 µM, first compound 0.01 µM): 79.8%; viability, T/C (second compound 0.316 µM, first compound 0.000316 µM): 105%; viability, T/C (second compound 0.316 µM, first compound 0.001 µM): 108%; viability, T/C (second compound 0.316 µM, first compound 0.00316 µM): 90.4%; viability, T/C (second compound 0.316 µM, first compound 0.01 µM): 80.8%; viability, T/C (second compound 1 µM, first compound 0.000316 µM): 95%; viability, T/C (second compound 1 µM, first compound 0.001 µM): 105%; viability, T/C (second compound 1 µM, first compound 0.00316 µM): 90.3%; viability, T/C (second compound 1 µM, first compound 0.01 µM): 65.8%; viability, T/C (second compound 3.16 µM, first compound 0.000316 µM): 78.7%; viability, T/C (second compound 3.16 µM, first compound 0.001 µM): 74.4%; viability, T/C (second compound 3.16 µM, first compound 0.00316 µM): 81.2%; viability, T/C (second compound 3.16 µM, first compound 0.01 µM): 69.9%; viability, T/C (second compound 10 µM, first compound 0.000316 µM): 66.3%; viability, T/C (second compound 10 µM, first compound 0.001 µM): 67.8%; viability, T/C (second compound 10 µM, first compound 0.00316 µM): 67.8%; viability, T/C (second compound 10 µM, first compound 0.01 µM): 66.1%
CC(C)c1c(-c2ccccc2)nc2c(C#N)c[nH]n2c1=O + Cc1ccccc1N=Nc1ccc(NC(=O)c2ccnn2C)c(C)c1	> 10000	> 10000	> 10000	> 10000	> 10000	114	121	112	124	117	109	98.2	109	132	141	123	108	88.8	86.2	121	viability, T/C [16]: 128%; viability, T/C [17]: 104%; viability, T/C [18]: 89.7%; viability, T/C [19]: 113%; viability, T/C [20]: 103%; viability, T/C [21]: 105%; viability, T/C [22]: 109%; viability, T/C [23]: 124%; viability, T/C [24]: 114%; viability, T/C [25]: 90.8%; viability, T/C [26]: 122%; viability, T/C [27]: 114%; viability, T/C [28]: 119%; viability, T/C [29]: 126%; viability, T/C [30]: 119%
O=C(c1cc(Cc2n[nH]c(=O)c3ccccc23)ccc1F)N1CCN(C(=O)C2CC2)CC1 + Cc1cncc(-c2nc(NCCc3c[nH]c4ccccc34)c3ncn(C(C)C)c3n2)c1	> 10000	> 10000	> 10000	> 10000	< 31.6	128	135	155	157	137	132	106	119	17.7	14	140	96.3	78.5	82.5	143	viability, T/C [16]: 117%; viability, T/C [17]: 106%; viability, T/C [18]: 90.5%; viability, T/C [19]: 142%; viability, T/C [20]: 98.5%; viability, T/C [21]: 128%; viability, T/C [22]: 114%; viability, T/C [23]: 135%; viability, T/C [24]: 119%; viability, T/C [25]: 119%; viability, T/C [26]: 111%; viability, T/C [27]: 13.2%; viability, T/C [28]: 13.9%; viability, T/C [29]: 10.4%; viability, T/C [30]: 8.74%
COc1cc(C2c3cc4c(cc3C(OC3OC5COC(C)OC5C(O)C3O)C3COC(=O)C23)OCO4)cc(OC)c1O (stereo not given) + Cc1cncc(-c2nc(NCCc3c[nH]c4ccccc34)c3ncn(C(C)C)c3n2)c1	563	722	1650	806	< 31.6	88.4	109	101	107	101	90.2	105	81.8	13.1	15.2	62.5	41.3	40	31.1	68.1	viability, T/C [16]: 47.2%; viability, T/C [17]: 35.4%; viability, T/C [18]: 33.8%; viability, T/C [19]: 81.3%; viability, T/C [20]: 54.8%; viability, T/C [21]: 42.1%; viability, T/C [22]: 35.2%; viability, T/C [23]: 86.4%; viability, T/C [24]: 41.2%; viability, T/C [25]: 37.1%; viability, T/C [26]: 30.2%; viability, T/C [27]: 13.7%; viability, T/C [28]: 5.82%; viability, T/C [29]: 6.89%; viability, T/C [30]: 5.29%
